Data on 3 compounds can be found in article PMC10988713 (FEBS Open Bio, 2024).

One may read the Kd as the concentration at which binding is half-saturated.

Molecules are shown by their SMILES.

In experiment [1] the target is T1, RnMFE1 (Rattus norvegicus, UniProt P07896).
T1 construct: gene Ehhadh
Briefly: stopped-flow NADH formation, kobs vs substrate. The format is biochemical. The settings on record: 1 mM NAD+, pH 9.0, 50 mM Tris, 50 mM KCl, room temperature; coupled ECH and HAD reactions of the same enzyme. From the text:
stopped-flow NADH formation, kobs vs substrate on RnMFE1

In experiment [2] the target is T2, BCDE (Rattus norvegicus, UniProt P07896).
T2 construct: gene Ehhadh; truncated RnMFE1 from Ala260 (ASGQ) to the C-terminus, without domain A (ECH part); N-terminal His6 tag, E. coli BL21(DE3) pLysS
The experiment is described as follows: stopped-flow NADH fluorescence, koff/kon. The format is binding. From the text: stopped-flow NADH fluorescence, koff/kon on BCDE

Experiment [3] deals with T3, HsHAD (Homo sapiens, UniProt Q16836).
T3 construct: gene HADH; N-terminal His6 tag in pET28a, E. coli BL21(DE3) pLysS, dimer of 35 kDa subunits
T3 sequence (Q16836 13-314): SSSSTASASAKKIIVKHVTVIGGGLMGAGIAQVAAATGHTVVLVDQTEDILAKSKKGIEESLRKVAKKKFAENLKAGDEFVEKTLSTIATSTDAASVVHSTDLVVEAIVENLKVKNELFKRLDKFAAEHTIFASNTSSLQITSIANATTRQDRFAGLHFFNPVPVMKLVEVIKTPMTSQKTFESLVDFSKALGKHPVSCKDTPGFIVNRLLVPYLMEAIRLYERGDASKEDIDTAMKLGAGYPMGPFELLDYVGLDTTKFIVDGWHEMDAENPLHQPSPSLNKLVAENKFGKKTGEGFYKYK
The experiment is described as follows: stopped-flow NADH fluorescence, koff/kon. The format is binding. From the text:
stopped-flow NADH fluorescence, koff/kon on HsHAD

Experiment [4] has as its target T1, RnMFE1. The experiment is described as follows: stopped-flow NADH fluorescence, koff/kon. The format is binding. From the text:
(§1) stopped-flow NADH fluorescence, koff/kon on RnMFE1

Experiment [5] concerns the target T4, RnMFE1 (Rattus norvegicus, UniProt P07896, E123A).
T4 construct: gene Ehhadh
The experiment is described as follows: stopped-flow NADH fluorescence, koff/kon. The format is binding.
From the text: as §1

The target of experiment [6] is T2, BCDE. The experiment is described as follows: stopped-flow tryptophan fluorescence, koff/kon. The format is binding. From the text: stopped-flow tryptophan fluorescence, koff/kon on BCDE
Experiment [7] deals with T3, HsHAD. Briefly: stopped-flow tryptophan fluorescence, koff/kon. The format is binding. An excerpt: stopped-flow tryptophan fluorescence, koff/kon on HsHAD
The target in experiment [8] is T1, RnMFE1. Briefly: stopped-flow tryptophan fluorescence, koff/kon. The format is binding. From the text:
(§2) stopped-flow tryptophan fluorescence, koff/kon on RnMFE1

The target in experiment [9] is T4, RnMFE1. The experiment is described as follows: stopped-flow tryptophan fluorescence, koff/kon. The format is binding.
From the text: as §2

T1 sequence (P07896 whole entry): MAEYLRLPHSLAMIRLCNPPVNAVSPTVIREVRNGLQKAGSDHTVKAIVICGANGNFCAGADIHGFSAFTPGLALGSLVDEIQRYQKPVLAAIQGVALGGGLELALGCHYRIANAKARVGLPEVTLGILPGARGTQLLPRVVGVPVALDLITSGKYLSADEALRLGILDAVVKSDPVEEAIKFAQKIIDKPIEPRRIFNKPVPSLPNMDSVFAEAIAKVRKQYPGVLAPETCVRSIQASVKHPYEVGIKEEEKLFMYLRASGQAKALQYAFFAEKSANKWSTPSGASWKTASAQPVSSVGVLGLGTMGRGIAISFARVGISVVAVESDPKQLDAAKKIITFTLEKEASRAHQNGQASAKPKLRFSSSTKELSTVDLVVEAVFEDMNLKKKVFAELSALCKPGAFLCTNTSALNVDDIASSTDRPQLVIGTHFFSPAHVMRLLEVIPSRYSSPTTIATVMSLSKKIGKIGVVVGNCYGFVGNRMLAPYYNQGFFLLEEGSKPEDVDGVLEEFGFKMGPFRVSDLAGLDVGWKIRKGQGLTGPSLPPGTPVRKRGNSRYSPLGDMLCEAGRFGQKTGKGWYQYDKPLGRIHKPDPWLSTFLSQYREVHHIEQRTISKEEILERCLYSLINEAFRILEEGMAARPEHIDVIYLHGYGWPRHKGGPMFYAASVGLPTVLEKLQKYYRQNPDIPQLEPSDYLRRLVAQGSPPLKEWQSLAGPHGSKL
T4 sequence (P07896 whole entry E123A): as the sequence (P07896 whole entry) above, with E123A counted along it
T2 sequence (P07896 260-722): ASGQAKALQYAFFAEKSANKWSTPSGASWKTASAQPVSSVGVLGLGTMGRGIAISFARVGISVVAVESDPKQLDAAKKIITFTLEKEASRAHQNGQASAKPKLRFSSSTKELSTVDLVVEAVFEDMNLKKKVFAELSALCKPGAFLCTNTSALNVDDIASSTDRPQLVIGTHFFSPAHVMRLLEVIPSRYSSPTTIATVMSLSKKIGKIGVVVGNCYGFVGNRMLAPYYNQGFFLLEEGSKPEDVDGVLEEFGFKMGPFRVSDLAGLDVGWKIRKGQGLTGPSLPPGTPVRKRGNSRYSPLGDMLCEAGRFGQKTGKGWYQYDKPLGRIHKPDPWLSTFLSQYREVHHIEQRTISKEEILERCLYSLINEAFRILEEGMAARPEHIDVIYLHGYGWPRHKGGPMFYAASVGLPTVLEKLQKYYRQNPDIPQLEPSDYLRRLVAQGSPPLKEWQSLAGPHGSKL

As to `C/C=C/C(=O)SCCNC(=O)CCNC(=O)[C@H](O)C(C)(C)COP(=O)(O)OP(=O)(O)OC[C@H]1O[C@@H](n2cnc3c(N)ncnc32)[C@H](O)[C@@H]1OP(=O)(O)O` [2E‐butenoyl‐CoA], binding at RnMFE1 [1] was characterised by a dissociation constant (Kd) of 1.9 ± 0.1 µM.

For the compound `NC(=O)C1=CN([C@@H]2O[C@H](COP(=O)(O)OP(=O)(O)OC[C@H]3O[C@@H](n4cnc5c(N)ncnc54)[C@H](O)[C@@H]3O)[C@@H](O)[C@H]2O)C=CC1` [NADH], the Kd at BCDE [2] is 5.7 µM; at HsHAD [3], 7 µM; on RnMFE1 [4], 5 µM; on RnMFE1 [5], 7.5 µM.

Turning to `NC(=O)c1ccc[n+]([C@@H]2O[C@H](COP(=O)(O)OP(=O)(O)OC[C@H]3O[C@@H](n4cnc5c(N)ncnc54)[C@H](O)[C@@H]3O)[C@@H](O)[C@H]2O)c1` [NAD^+], the dissociation constant Kd was determined as 7.5 µM at BCDE [6], 6 µM on HsHAD [7], 7.6 µM on RnMFE1 [8] and 8 µM at RnMFE1 [9].
